From PubChem BioAssay AID1591 (Sanford-Burnham Center for Chemical Genomics, 2009)

Tested on: human plasma stability, LC/MS/MS, 180 min
Experiment: human plasma degradation, percent remaining – biochemical, LC/MS/MS, 180 min, dry powder, ADME assay, late-stage follow-up (AID 1591)
Settings: at 1 µM; hits give low values

C=CCn1c(SCC(=O)c2ccc(O)c(O)c2)nnc1-c1ccccc1OC
percent remaining: 82.6%
